This note sets out measurements from ChEMBL document CHEMBL5316338, “Discovery of Novel PTP1B Inhibitors with Once-Weekly Therapeutic Potential for Type 2 Diabetes: Design, Synthesis, and In Vitro and In Vivo Investigations of BimBH3 Peptide Analogues” (J Med Chem, 2023).

Data set [1] has as its target T1, Tyrosine-protein phosphatase non-receptor type 1 (Homo sapiens) (UniProt P18031).
T1 sequence (whole entry): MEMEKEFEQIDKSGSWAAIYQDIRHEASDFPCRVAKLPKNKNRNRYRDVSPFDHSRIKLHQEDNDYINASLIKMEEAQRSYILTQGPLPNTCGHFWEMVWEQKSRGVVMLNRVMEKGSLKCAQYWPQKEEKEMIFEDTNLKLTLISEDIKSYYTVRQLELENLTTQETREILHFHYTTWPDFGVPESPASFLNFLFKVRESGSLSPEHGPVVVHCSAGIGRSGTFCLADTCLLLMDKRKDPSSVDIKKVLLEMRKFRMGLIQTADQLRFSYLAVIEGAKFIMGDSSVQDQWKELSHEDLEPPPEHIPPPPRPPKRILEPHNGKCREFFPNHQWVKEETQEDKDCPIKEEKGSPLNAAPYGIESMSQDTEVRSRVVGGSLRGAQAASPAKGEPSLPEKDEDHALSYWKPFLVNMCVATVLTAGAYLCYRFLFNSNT
Kind of data set: Inhibition of N-terminal His tagged recombinant human PTP1B expressed in Escherichia coli using pNPP as substrate assessed as substrate hydrolysis at 40 umol/L relative to control. Particulars: dose 40.0 µmol/L.

Data set [2] addresses T2, Tyrosine-protein phosphatase non-receptor type 1 (Homo sapiens, UniProt P18031).
T2 sequence (P18031 whole entry): T1 sequence (whole entry)
Kind of data set: Inhibition of N-terminal His tagged recombinant human PTP1B expressed in Escherichia coli using pNPP as substrate assessed as substrate hydrolysis.

Data set [3] deals with chymotrypsin (Homo sapiens, UniProt P17538+P40313+Q6GPI1+Q99895). The data set is described as follows: Stability of compound assessed as chymotrypsin (unknown origin) mediated compound degradation by measuring half-life by RP-HPLC analysis. The class given is ADME, protein assay.
The test system of a further data set is Pepsin. The data set is described as follows: Stability of compound assessed as Pepsin (unknown origin) mediated compound degradation by measuring half-life by HPLC analysis. The format is ADME. Conditions: human.
The nature of data set [4]: Stability of compound assessed as Pepsin (unknown origin) mediated compound degradation by measuring fold change of half-life by HPLC analysis relative to BimBH312-mer peptide. The class given is ADME. Conditions: human.
The target of the next data set is T3, carboxypeptidase A (Homo sapiens, UniProt P15085).
T3 sequence (P15085 whole entry): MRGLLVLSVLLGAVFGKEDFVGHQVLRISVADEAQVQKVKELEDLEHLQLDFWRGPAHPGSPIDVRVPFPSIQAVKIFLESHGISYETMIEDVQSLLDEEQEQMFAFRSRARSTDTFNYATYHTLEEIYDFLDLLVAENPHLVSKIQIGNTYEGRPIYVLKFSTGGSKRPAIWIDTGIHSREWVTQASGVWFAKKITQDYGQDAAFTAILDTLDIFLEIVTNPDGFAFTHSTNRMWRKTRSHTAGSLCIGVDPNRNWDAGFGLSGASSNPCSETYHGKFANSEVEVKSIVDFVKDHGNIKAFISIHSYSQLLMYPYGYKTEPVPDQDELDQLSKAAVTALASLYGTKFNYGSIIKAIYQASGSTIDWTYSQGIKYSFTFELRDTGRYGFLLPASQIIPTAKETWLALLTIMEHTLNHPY
The data set is described as follows: Stability of compound assessed as carboxypeptidase A (unknown origin) mediated compound degradation by measuring half-life by RP-HPLC analysis. The class given is ADME.

For the next data set, the system named is Proteinase K. Kind of data set: Stability of compound assessed as Proteinase K (unknown origin) mediated compound degradation by measuring half-life by HPLC analysis. The class given is ADME.
Data set [5] in a line: Stability of compound assessed as Proteinase K (unknown origin) mediated compound degradation by measuring fold change of half-life by HPLC analysis relative to BimBH312-mer peptide. The class given is ADME.
The target of data set [6] is Chymotrypsin (Homo sapiens, UniProt Q99895+P17538+P40313+Q6GPI1). The data set is described as follows: Stability of compound assessed as chymotrypsin (unknown origin) mediated compound degradation by measuring fold change of half-life by RP-HPLC analysis relative to BimBH312-mer peptide. The class given is ADME, protein assay.
The target of another data set is T4, Carboxypeptidase A1 (Homo sapiens, UniProt P15085).
T4 sequence (P15085 whole entry): T3 sequence (P15085 whole entry)
The data set is described as follows: Stability of compound assessed as carboxypeptidase A (unknown origin) mediated compound degradation by measuring fold change of half-life by RP-HPLC analysis relative to BimBH312-mer peptide. The format is ADME.

The structures appear in SMILES notation. Square brackets hold non-standard residues; d marks the D form. Peptide text beside a SMILES is read from it. * marks the point of attachment. ξ: configuration not given here. C19 diacid = O=C(O)CCCCCCCCCCCCCCCCCC(=O)*; C17 diacid = O=C(O)CCCCCCCCCCCCCCCC(=O)*; Docosanoyl = CCCCCCCCCCCCCCCCCCCCCC(=O)*; C16 diacid = O=C(O)CCCCCCCCCCCCCCC(=O)*; Nonadecanoyl = CCCCCCCCCCCCCCCCCCC(=O)*; Heptadecanoyl = CCCCCCCCCCCCCCCCC(=O)*; Pentadecanoyl = CCCCCCCCCCCCCCC(=O)*; Palmitoyl = CCCCCCCCCCCCCCCC(=O)*; Tridecanoyl = CCCCCCCCCCCCC(=O)*; Lauroyl = CCCCCCCCCCCC(=O)*; ξR = N=C(N)NCCCC(N)C(=O)O

Regarding `CC[C@H](C)[C@H](NC(=O)CCCCCCCCCCCCCCCCCC(=O)O)C(=O)N[C@@H](C)C(=O)N[C@@H](CCC(N)=O)C(=O)N[C@@H](CCC(=O)O)C(=O)N[C@@H](CC(C)C)C(=O)N[C@@H](CCCNC(=N)N)C(=O)NC(CCCNC(=N)N)C(=O)N[C@H](C(=O)NCC(=O)N[C@@H](CC(=O)O)C(=O)N[C@@H](CCC(=O)O)C(=O)N[C@@H](Cc1ccccc1)C(=O)O)[C@@H](C)CC` (stereo not given in full) ({C19 diacid}-IAQELR[ξR]IGDEF-OH), in data set [1], the inhibition is over 50%. Moreover, the half-maximal inhibitory concentration (IC50) in data set [2] was determined as 1270 nM.

As for `CCCCCCCCCCCCCCC(=O)N[C@H](C(=O)N[C@@H](C)C(=O)N[C@@H](CCC(N)=O)C(=O)N[C@@H](CCC(=O)O)C(=O)N[C@@H](CC(C)C)C(=O)N[C@@H](CCCNC(=N)N)C(=O)N[C@@H](CCCNC(=N)N)C(=O)N[C@H](C(=O)NCC(=O)N[C@@H](CC(=O)O)C(=O)N[C@@H](CCC(=O)O)C(=O)N[C@@H](Cc1ccccc1)C(=O)O)[C@@H](C)CC)[C@@H](C)CC` (Pentadecanoyl-IAQELRRIGDEF-OH), the inhibition in data set [1] was over 50%. The IC50 in [2] was 1660 nM.

Take `CCCCCCCCCCCC(=O)N[C@H](C(=O)N[C@@H](C)C(=O)N[C@@H](CCC(N)=O)C(=O)N[C@@H](CCC(=O)O)C(=O)N[C@@H](CC(C)C)C(=O)N[C@@H](CCCNC(=N)N)C(=O)N[C@@H](CCCNC(=N)N)C(=O)N[C@H](C(=O)NCC(=O)N[C@@H](CC(=O)O)C(=O)N[C@@H](CCC(=O)O)C(=O)N[C@@H](Cc1ccccc1)C(=O)O)[C@@H](C)CC)[C@@H](C)CC` (Lauroyl-IAQELRRIGDEF-OH): in data set [1], the inhibition is over 50%. The IC50 in data set [2] amounted to 2780 nM.

For the molecule `CC[C@H](C)[C@H](NC(=O)CCCCCCCCCCCCCCC(=O)O)C(=O)N[C@@H](C)C(=O)N[C@@H](CCC(N)=O)C(=O)N[C@@H](CCC(=O)O)C(=O)N[C@@H](CC(C)C)C(=O)N[C@@H](CCCNC(=N)N)C(=O)N[C@@H](CCCNC(=N)N)C(=O)N[C@H](C(=O)NCC(=O)N[C@@H](CC(=O)O)C(=O)N[C@@H](CCC(=O)O)C(=O)N[C@@H](Cc1ccccc1)C(=O)O)[C@@H](C)CC` ({C16 diacid}-IAQELRRIGDEF-OH), in data set [1], the inhibition is over 50%. Also, in data set [2], the half-inhibitory concentration (IC50) stood at 2880 nM.

For `CCCCCCCCCCCCCCCC(=O)N[C@@H](CCC(=O)N[C@H](C(=O)N[C@@H](C)C(=O)N[C@H](CCC(N)=O)C(=O)N[C@@H](CCC(=O)O)C(=O)N[C@@H](CC(C)C)C(=O)N[C@@H](CCCNC(=N)N)C(=O)N[C@@H](CCCNC(=N)N)C(=O)N[C@H](C(=O)NCC(=O)N[C@@H](CC(=O)O)C(=O)N[C@@H](CCC(=O)O)C(=O)N[C@@H](Cc1ccccc1)C(=O)O)[C@@H](C)CC)[C@@H](C)CC)C(=O)O`, the inhibition in data set [1] is over 50%. The IC50 in data set [2] stood at 4350 nM.

In the case of `CCCCCCCCCCCCCCCCCCC(=O)N[C@H](C(=O)N[C@@H](C)C(=O)N[C@@H](CCC(N)=O)C(=O)N[C@@H](CCC(=O)O)C(=O)N[C@@H](CC(C)C)C(=O)N[C@@H](CCCNC(=N)N)C(=O)NC(CCCNC(=N)N)C(=O)N[C@H](C(=O)NCC(=O)N[C@@H](CC(=O)O)C(=O)N[C@@H](CCC(=O)O)C(=O)N[C@@H](Cc1ccccc1)C(=O)O)[C@@H](C)CC)[C@@H](C)CC` (stereo not given in full) (Nonadecanoyl-IAQELR[ξR]IGDEF-OH), in data set [1], the inhibition is over 50%. For the same molecule, the IC50 in [2] was 437 nM.

As for `CCCCCCCCCCCCCCCCC(=O)N[C@H](C(=O)N[C@@H](C)C(=O)N[C@@H](CCC(N)=O)C(=O)N[C@@H](CCC(=O)O)C(=O)N[C@@H](CC(C)C)C(=O)N[C@@H](CCCNC(=N)N)C(=O)N[C@@H](CCCNC(=N)N)C(=O)N[C@H](C(=O)NCC(=O)N[C@@H](CC(=O)O)C(=O)N[C@@H](CCC(=O)O)C(=O)N[C@@H](Cc1ccccc1)C(=O)O)[C@@H](C)CC)[C@@H](C)CC` (Heptadecanoyl-IAQELRRIGDEF-OH), in [1], the inhibition is over 50%. Moreover, the 50% inhibitory concentration (IC50) in data set [2] is 2570 nM.

For the molecule `CCCCCCCCCCCCCCCCCCCCCC(=O)N[C@H](C(=O)N[C@@H](C)C(=O)N[C@@H](CCC(N)=O)C(=O)N[C@@H](CCC(=O)O)C(=O)N[C@@H](CC(C)C)C(=O)N[C@@H](CCCNC(=N)N)C(=O)NC(CCCNC(=N)N)C(=O)N[C@H](C(=O)NCC(=O)N[C@@H](CC(=O)O)C(=O)N[C@@H](CCC(=O)O)C(=O)N[C@@H](Cc1ccccc1)C(=O)O)[C@@H](C)CC)[C@@H](C)CC` (stereo not given in full) (Docosanoyl-IAQELR[ξR]IGDEF-OH), the inhibition in data set [1] is over 50%. The IC50 in data set [2] was found to be 6780 nM.

As to `CC[C@H](C)[C@H](NC(=O)CCCCCCCCCCCCCCCC(=O)O)C(=O)N[C@@H](C)C(=O)N[C@@H](CCC(N)=O)C(=O)N[C@@H](CCC(=O)O)C(=O)N[C@@H](CC(C)C)C(=O)N[C@@H](CCCNC(=N)N)C(=O)NC(CCCNC(=N)N)C(=O)N[C@H](C(=O)NCC(=O)N[C@@H](CC(=O)O)C(=O)N[C@@H](CCC(=O)O)C(=O)N[C@@H](Cc1ccccc1)C(=O)O)[C@@H](C)CC` (stereo not given in full) ({C17 diacid}-IAQELR[ξR]IGDEF-OH), in data set [1], the inhibition is over 50%. In addition, in data set [2], the IC50 was 1360 nM.

Turning to `CCCCCCCCCCCCC(=O)N[C@H](C(=O)N[C@@H](C)C(=O)N[C@@H](CCC(N)=O)C(=O)N[C@@H](CCC(=O)O)C(=O)N[C@@H](CC(C)C)C(=O)N[C@@H](CCCNC(=N)N)C(=O)N[C@@H](CCCNC(=N)N)C(=O)N[C@H](C(=O)NCC(=O)N[C@@H](CC(=O)O)C(=O)N[C@@H](CCC(=O)O)C(=O)N[C@@H](Cc1ccccc1)C(=O)O)[C@@H](C)CC)[C@@H](C)CC` (Tridecanoyl-IAQELRRIGDEF-OH), the inhibition in [1] is over 50%. Also, the IC50 in data set [2] was determined as 835 nM.

For the molecule `CCCCCCCCCCCCCCCC(=O)N[C@H](C(=O)N[C@@H](C)C(=O)N[C@@H](CCC(N)=O)C(=O)N[C@@H](CCC(=O)O)C(=O)N[C@@H](CC(C)C)C(=O)N[C@@H](CCCNC(=N)N)C(=O)N[C@@H](CCCNC(=N)N)C(=O)N[C@H](C(=O)NCC(=O)N[C@@H](CC(=O)O)C(=O)N[C@@H](CCC(=O)O)C(=O)N[C@@H](Cc1ccccc1)C(=O)O)[C@@H](C)CC)[C@@H](C)CC` (Palmitoyl-IAQELRRIGDEF-OH), the half-life on chymotrypsin [3] is 0.56 h; in the data set on Pepsin, 2.7 h; at carboxypeptidase A it was 3.19 h; in the data set with Proteinase K, 2.82 h. Also, the inhibition in data set [1] is over 50%. The “fold change (FC)” value in [4] was 122.7; in data set [5] it was 56.4; on Chymotrypsin [6] it was 13; at Carboxypeptidase A1, 99.7. Moreover, the concentration for half-maximal inhibition (IC50) in [2] is 960 nM.
